System: 996289-038-R-J1-PDC spheroid viability
Assay: Anticancer human tumor 996289-038-R-J1-PDC patient-derived colon adenocarcinoma cell line growth inhibition [PI3K]
Details: spheroids with HUVEC and MSC; for IC50: curve of first compound; for viability, T/C: stronger effect = lower value
In short: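 Three cell types, namely tumor cells, endothelial cells and mesenchymal stem cells, formed each spheroid. Combinations with four PI3K inhibitors were screened at clinically achievable concentrations decreasing by half-log, and spheroid viability was recorded.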

[1] = second compound 0.00316 µM, first compound 0.000316 µM
[2] = second compound 0.00316 µM, first compound 0.001 µM
[3] = second compound 0.00316 µM, first compound 0.00316 µM
[4] = second compound 0.00316 µM, first compound 0.01 µM
[5] = second compound 0.00316 µM, first compound 0.0316 µM
[6] = second compound 0.00316 µM, first compound 0.1 µM
[7] = second compound 0.01 µM, first compound 0.000316 µM
[8] = second compound 0.01 µM, first compound 0.001 µM
[9] = second compound 0.01 µM, first compound 0.00316 µM
[10] = second compound 0.01 µM, first compound 0.01 µM
[11] = second compound 0.01 µM, first compound 0.0316 µM
[12] = second compound 0.01 µM, first compound 0.1 µM
[13] = second compound 0.0316 µM, first compound 0.000316 µM
[14] = second compound 0.0316 µM, first compound 0.001 µM
[15] = second compound 0.0316 µM, first compound 0.00316 µM
[16] = second compound 0.0316 µM, first compound 0.01 µM
[17] = second compound 0.0316 µM, first compound 0.0316 µM
[18] = second compound 0.0316 µM, first compound 0.1 µM
[19] = second compound 0.1 µM, first compound 0.000316 µM
[20] = second compound 0.1 µM, first compound 0.001 µM
[21] = second compound 0.1 µM, first compound 0.00316 µM
[22] = second compound 0.1 µM, first compound 0.01 µM
[23] = second compound 0.1 µM, first compound 0.0316 µM
[24] = second compound 0.1 µM, first compound 0.1 µM
[25] = second compound 0.316 µM, first compound 0.000316 µM
[26] = second compound 0.316 µM, first compound 0.001 µM
[27] = second compound 0.316 µM, first compound 0.00316 µM
[28] = second compound 0.316 µM, first compound 0.01 µM
[29] = second compound 0.316 µM, first compound 0.0316 µM
[30] = second compound 0.316 µM, first compound 0.1 µM
[31] = second compound 1 µM, first compound 0.000316 µM
[32] = second compound 1 µM, first compound 0.001 µM
[33] = second compound 1 µM, first compound 0.00316 µM
[34] = second compound 1 µM, first compound 0.01 µM
[35] = second compound 1 µM, first compound 0.0316 µM
[36] = second compound 1 µM, first compound 0.1 µM
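Note: spheroids exposed to compounds for seven days before viability read.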
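Throughout, for viability, T/C: luminescence used as a proxy for viable cell amount; percent viability relative to DMSO vehicle control as 100%.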

CC(=O)c1c(C)c2cnc(Nc3ccc(N4CCNCC4)cn3)nc2n(C2CCCC2)c1=O + COc1c(OCCCN2CCOCC2)ccc2c3n(c(=NC(=O)c4cnc(N)nc4)nc12)CCN3
IC50 (second compound 0.00316 µM): > 100 nM
IC50 (second compound 0.01 µM): > 100 nM
IC50 (second compound 0.0316 µM): > 100 nM
IC50 (second compound 0.1 µM): > 100 nM
IC50 (second compound 0.316 µM): < 0.316 nM
IC50 (second compound 1 µM): < 0.316 nM
viability, T/C [1]: 99.3%
viability, T/C [2]: 96.9%
viability, T/C [3]: 104%
viability, T/C [4]: 94.2%
viability, T/C [5]: 97.4%
viability, T/C [6]: 83.1%
viability, T/C [7]: 89.1%
viability, T/C [8]: 89.9%
viability, T/C [9]: 80.2%
viability, T/C [10]: 90.8%
viability, T/C [11]: 94.2%
viability, T/C [12]: 73%
viability, T/C [13]: 66.1%
viability, T/C [14]: 81.4%
viability, T/C [15]: 80.5%
viability, T/C [16]: 81.8%
viability, T/C [17]: 73.7%
viability, T/C [18]: 70.6%
viability, T/C [19]: 62.7%
viability, T/C [20]: 56%
viability, T/C [21]: 59.4%
viability, T/C [22]: 55%
viability, T/C [23]: 57.5%
viability, T/C [24]: 49.8%
viability, T/C [25]: 34.4%
viability, T/C [26]: 31.6%
viability, T/C [27]: 39.1%
viability, T/C [28]: 31.3%
viability, T/C [29]: 37.8%
viability, T/C [30]: 29.4%
viability, T/C [31]: 19.1%
viability, T/C [32]: 22%
viability, T/C [33]: 21.5%
viability, T/C [34]: 16.6%
viability, T/C [35]: 17.7%
viability, T/C [36]: 15.9%

CC(C)n1nc(-c2ccc3oc(N)nc3c2)c2c(N)ncnc21 + COc1c(OCCCN2CCOCC2)ccc2c3n(c(=NC(=O)c4cnc(N)nc4)nc12)CCN3
IC50 (second compound 0.00316 µM): 54.7 nM
IC50 (second compound 0.01 µM): 49.6 nM
IC50 (second compound 0.0316 µM): 31.6 nM
IC50 (second compound 0.1 µM): 7.59 nM
IC50 (second compound 0.316 µM): < 0.316 nM
IC50 (second compound 1 µM): < 0.316 nM
viability, T/C [1]: 92%
viability, T/C [2]: 81.8%
viability, T/C [3]: 83.2%
viability, T/C [4]: 81.4%
viability, T/C [5]: 63.5%
viability, T/C [6]: 34.5%
viability, T/C [7]: 92.1%
viability, T/C [8]: 79.2%
viability, T/C [9]: 91.3%
viability, T/C [10]: 82.8%
viability, T/C [11]: 65.7%
viability, T/C [12]: 25.6%
viability, T/C [13]: 69%
viability, T/C [14]: 73.7%
viability, T/C [15]: 77.9%
viability, T/C [16]: 68.3%
viability, T/C [17]: 50.2%
viability, T/C [18]: 25.1%
viability, T/C [19]: 59.1%
viability, T/C [20]: 56.6%
viability, T/C [21]: 54.1%
viability, T/C [22]: 48.3%
viability, T/C [23]: 37.8%
viability, T/C [24]: 16.1%
viability, T/C [25]: 34.8%
viability, T/C [26]: 32.9%
viability, T/C [27]: 29.9%
viability, T/C [28]: 35%
viability, T/C [29]: 24.9%
viability, T/C [30]: 10.9%
viability, T/C [31]: 20.9%
viability, T/C [32]: 16.9%
viability, T/C [33]: 16.4%
viability, T/C [34]: 16.6%
viability, T/C [35]: 14.4%
viability, T/C [36]: 10.3%

CCCS(=O)(=O)Nc1ccc(F)c(C(=O)c2c[nH]c3ncc(-c4ccc(Cl)cc4)cc23)c1F + COc1c(OCCCN2CCOCC2)ccc2c3n(c(=NC(=O)c4cnc(N)nc4)nc12)CCN3
IC50 (second compound 0.00316 µM): 6030 nM
IC50 (second compound 0.01 µM): 6090 nM
IC50 (second compound 0.0316 µM): 5100 nM
IC50 (second compound 0.1 µM): 1770 nM
IC50 (second compound 0.316 µM): < 31.6 nM
IC50 (second compound 1 µM): < 31.6 nM
viability, T/C [5]: 98.9%
viability, T/C [6]: 81.6%
viability, T/C (second compound 0.00316 µM, first compound 0.316 µM): 94.6%
viability, T/C (second compound 0.00316 µM, first compound 1 µM): 108%
viability, T/C (second compound 0.00316 µM, first compound 3.16 µM): 87.5%
viability, T/C (second compound 0.00316 µM, first compound 10 µM): 19.9%
viability, T/C [11]: 96.4%
viability, T/C [12]: 92.6%
viability, T/C (second compound 0.01 µM, first compound 0.316 µM): 87.4%
viability, T/C (second compound 0.01 µM, first compound 1 µM): 85.7%
viability, T/C (second compound 0.01 µM, first compound 3.16 µM): 90.6%
viability, T/C (second compound 0.01 µM, first compound 10 µM): 19.4%
viability, T/C [17]: 71%
viability, T/C [18]: 78.2%
viability, T/C (second compound 0.0316 µM, first compound 0.316 µM): 72.5%
viability, T/C (second compound 0.0316 µM, first compound 1 µM): 80.2%
viability, T/C (second compound 0.0316 µM, first compound 3.16 µM): 71.1%
viability, T/C (second compound 0.0316 µM, first compound 10 µM): 19.8%
viability, T/C [23]: 63.5%
viability, T/C [24]: 49.7%
viability, T/C (second compound 0.1 µM, first compound 0.316 µM): 66.9%
viability, T/C (second compound 0.1 µM, first compound 1 µM): 53.4%
viability, T/C (second compound 0.1 µM, first compound 3.16 µM): 44.4%
viability, T/C (second compound 0.1 µM, first compound 10 µM): 12.2%
viability, T/C [29]: 32.3%
viability, T/C [30]: 42.4%
viability, T/C (second compound 0.316 µM, first compound 0.316 µM): 35.9%
viability, T/C (second compound 0.316 µM, first compound 1 µM): 36.7%
viability, T/C (second compound 0.316 µM, first compound 3.16 µM): 26%
viability, T/C (second compound 0.316 µM, first compound 10 µM): 8.03%
viability, T/C [35]: 19.9%
viability, T/C [36]: 22.4%
viability, T/C (second compound 1 µM, first compound 0.316 µM): 20.2%
viability, T/C (second compound 1 µM, first compound 1 µM): 15.9%
viability, T/C (second compound 1 µM, first compound 3.16 µM): 14%
viability, T/C (second compound 1 µM, first compound 10 µM): 6.42%
